For data set [1], the system named is D423 (ENO1-deleted) glioma cells. The data set is described as follows: Cell proliferation assay (crystal violet) in ENO1-deleted glioma cells. The data set is classed as cell-based. The settings on record: for IC50: Glioma cell; for selectivity for ENO1-deleted cells: versus ENO1-rescued (D423 ENO1) and ENO1-intact (LN319) glioma cells. Here is the method: Cell culture experiments. Cell culture experiments were conducted using the D423-MG cell line. 1p36 homozygous deletion in D423 includes the genes from CAMTAJ to SLC25A33; this includes ENO1. Isogenic ENO1 ectopically rescued lines were described previously (pCMV ENO1 5X) (Muller et al., 2012, which is incorporated by reference herein). An ENO1-intact cell line (LN319) was used as a control for sensitivity to Enolase inhibitors. Cells were routinely cultured in Dulbecco's modified Eagle's medium supplemented with 10% fetal bovine serum.
Cell proliferation assay. Cell Proliferation was determined by crystal violet staining, as previously described (Leonard et al., 2016 and Satani et al., 2016). The cell lines used were D423 (ENO1-deleted), D423 ENO1 (overexpressing ENO1) and LN319 (control). Glioma cells were seeded in 96-well plates and treated with varying concentrations of the inhibitors described above for 7 days. Cells were then washed with PBS, fixed with 10% formalin and stained with 0.05% crystal violet. Washed and dried plates were dye-extracted using 10% acetic acid, and absorbance was measured at 595 nm using Omegastar Plate Reader (BMG Labtech). To test the efficacy of the synthesized under hypoxic conditions, 1×10^4 cells were plated in 96-well plates, treated with VCY13, VCY15, VCY16, or VCY17 and incubated for 3 days in a hypoxia station (Don Whitley Scientific, Shipley, UK) set at 1% O2 and 5% CO2. Crystal violet staining was then performed as described above.
Additional Biological Data. Pro-drug inhibitor structures and corresponding IC50 values against ENO1-deleted cells are shown below in Table 2. The name and corresponding structures of all synthesized inhibitors are given in left and middle columns of each table. Pro-drug moieties in blue represent a second pro-drug leave group while those in red represent a first pro-drug leave group. Some inhibitors also contain an acetyl-protected hydroxamate, which is also a biologically labile moiety. ENO1-deleted (D423), ENO1-isogenically rescued (D423 ENO1), and ENO1-WT (LN319) cells were treated with either pro-drug inhibitor for 5 days at 21% O2, unless otherwise specified. […] IC50,D423 values at 21% O2 are given in the right columns of each table. Experiments conducted at 1% O2 (hypoxic) or 70% O2 (hyperoxic) conditions are noted, where appropriate.

For data set [2] the following is noted: nitroimidazole in VCY17, nitrofuran in VCY15; cited from earlier work.
The nature of data set [3]: Plasma levels after IV injection of POMHEX in monkeys. The settings on record: after IV POMHEX, monkey 2.5 mg/kg, mouse 10 mg/kg. The data set is classed as in vivo, monkey. On the procedure: (§1) FIGS. 16A-16C show the ex-vivo half-life of POMHEX in biological fluids limits its clinical utility. […] Lower levels of carboxylesterase in human blood results in a longer half-life of POMHEX. (FIG. 16B) Dramatically higher drug exposure in non-human primates as compared to mice following IV injections of POMHEX. Mice (n=3; pooled) and monkeys (n=3; pooled) were injected IV with POMHEX at 10 mg/kg and 2.5 mg/kg, respectively. […] POMHEX was undetectable (<50 nM) even at the earliest time point, in both monkey and mouse experiments; at 98 nM, POMHEX was detectable 1-minute post-injection, but at no time thereafter. […] HEX and HemiPOMHEX were not measured at concentrations higher than 10 mg/kg due to the hazards associated with the derivatization agent, trimethylsilyl-diazomethane in hexane (TMS-DAM). (FIG. 16C) Schematic of POMHEX in circulation when administered IP or IV in mice. Due to high levels of plasma carboxylesterase, a gradient decrease in POMHEX away from the site of injection is accompanied by a concurrent increase in HemiPOMHEX.

The test system of data set [4] is U343 glioma cell line (ENO1-heterozygously deleted). The data set can be described thus: Enolase inhibitor sensitivity (crystal violet), ENO1-heterozygously deleted U343 cells. The data set is classed as cell-based. The settings on record: DMEM 10% FBS, terminal cell density by crystal violet after 7 days. Here is the method: (§2) Enolase inhibitor sensitivity experiments were performed, using DMEM containing 10% FBS cell culture media. IC50 (expressed in nM) were calculated based on terminal cell density measured by crystal violet after 7 days of growth. […] Left table: POMHEX. Middle table: HEX. Right table: Ratio of sensitivity to POMHEX versus HEX for each cell line.
(§3) (FIG. 19A) ENO1-deleted (D423, red), ENO1-isogenically rescued (D423 ENO1, blue), and ENO1-WT (LN319, grey) cells were treated POMHEX in RPMI media under the same experimental conditions used for NCI-60 screening. […] IC50 (expressed in nM) were calculated based on terminal cell density measured by crystal violet.
(§4) Cell proliferation assay.

The subject of data set [5] is D502 glioma cell line (ENO1-heterozygously deleted). The data set is described as follows: Enolase inhibitor sensitivity (crystal violet), ENO1-heterozygously deleted D502 cells. The data set is classed as cell-based. The settings on record: DMEM 10% FBS, terminal cell density by crystal violet after 7 days. Here is the method: as §2, §3, §4
Data set [6] can be described thus: Plasma and organ levels after injection of POMHEX in mice. The data set is classed as in vivo, mouse. The conditions noted are these: 24 hrs. after a single intravenous injection of 10 mg/kg POMHEX. On the procedure:
FIGS. 3A-3D show the ex-vivo half-life of POMHEX in biological fluids may limit its clinical utility. (FIG. 3A) Ex-vivo half-life of POMHEX in biological fluids. POMHEX has a half-life of ~30 seconds in mouse plasma. The degradation may be prevented by heat inactivation or de-proteinatization with acetonitrile. […] (FIG. 3B) Plasma concentration of HEX and HemiPOMHEX following a single intravenous injection of POMHEX, as a function of time. Mice were injected IV with 10 mg/kg POMHEX and sacrificed at the indicated time points. Each data point represents a single animal. Note, POMHEX itself was below the detection limit (100 nM) even at the earliest time point. It is believed that this may not be reflective of the physiological state as separation of plasma from hematocrit is required for the measurements, which adds approximately 6 minutes of processing time during which POMHEX may be degraded to HemiPOMHEX. (FIG. 3C) The results of the same experiment but performed with an intraperitoneal injection of POMHEX, at a dose of 40 mg/kg. (FIG. 3D) Quantification of POMHEX and its metabolites in mouse organs 24 hrs. after a single intravenous injection of 10 mg/kg POMHEX.
as §1, with “Due to high levels of plasma carboxylesterase, a gradient decrease in POMHEX away from the site of injection is accompanied by a concurrent increase in HemiPOMHEX.” left out

Setting [7] is: 120 h, ENO1-deleted (D423) cells, 5 days, 21% O2, read-out: IC50,D423.
Where [8] appears, read: 120 h, 21% O2, 5 days where stated, read-out: IC50 against D423 (ENO1-deleted) cells.
[9] abbreviates: D423 cells, 1% O2 (hypoxic), read-out: IC50,D423 at 1% O2.

These results are taken from patent publication US12679855B2, “Inhibitors of the enzyme enolase for precision oncology” (Board of Regents, The University of Texas System, priority 2019, dated 2026).

Entries after “also recorded” stand apart in the source; their conditions may differ. Like-named read-outs stand apart in the source and are kept apart here.

What is called IC50 is the concentration at which inhibition is half-maximal.

For `CC(C)(C)C(=O)OCOP(=O)(NCc1ccc(F)c(F)c1)C1CCCN(O)C1=O` (stereo not shown) [CDP13, ((((3,4-difluorobenzyl)amino)(1-hydroxy-2-oxopiperidin-3-yl)phosphoryl)oxy)methyl pivalate], the 50% inhibitory concentration (IC50) in data set [1] (setting [7]) stood at 221 nM.

For `CC(C)(C)C(=O)OCOP(=O)(NCc1cccc(F)c1)C1CCCN(O)C1=O` (stereo not shown) [CDP12, ((((3-fluorobenzyl)amino)(1-hydroxy-2-oxopiperidin-3-yl)phosphoryl)oxy)methyl pivalate], the IC50 in data set [1] (setting [7]) was determined as 249 nM.

For `CC(=O)ON1CCCC(P(=O)(NCc2ccccc2)OCc2ccc([N+](=O)[O-])o2)C1=O` (stereo not shown) [VCY15, 3-((benzylamino)((S-nitrofuran-2-yl)methoxy)phosphoryl)-2-oxopiperidin-1-yl acetate], the “redox potential of the nitroheterocycle” value in data set [2] was −330 mV. Also, the results for the IC50 in data set [1] (setting [8]), in data set [1] (setting [7]) and in data set [1] (setting [9]) were 230 nM, 390 nM and 97 nM, respectively. Also, in data set [1] (taking into account HIF-1α/hypoxia-driven increase in ENO2 expression), the “difference in bioactivation from 21% to 1% O2” value is reported as ~ 5 fold. Also, the “selectivity for ENO1-deleted cells” value in data set [1] was “selective toxicity against ENO1-deleted”.

With `O=C1C(P(=O)(O)O)CCCN1O` (stereo not shown) [HEX], in data set [3], the “half-life in monkey compared to mouse” value is “longer in monkey”. Besides, the IC50 in data set [4] amounted to 19.7 µM; in data set [5] it was 28.8 µM.

As for `N#CCCOP(=O)(NCc1ccccc1)C1CCCN(O)C1=O` (stereo not shown) [VCY26], the IC50 in data set [1] (setting [7]) amounted to 5000 nM.

Turning to `CC(=O)ON1CCCC(P(=O)(NCc2ccccc2)OCc2ccc([N+](=O)[O-])s2)C1=O` (stereo not shown) [VCY16, 3-((benzylamino)((5-nitrothiophen-2-yl)methoxy)phosphoryl)-2-oxopiperidin-1-yl acetate], the values for the half-inhibitory concentration (IC50) in data set [1] (setting [7]) and in data set [1] (setting [9]) were 234 nM and 40 nM, respectively.

Regarding `CC(=O)ON1CCCC(P(=O)(NCc2ccc(F)cc2)OCc2ccc([N+](=O)[O-])o2)C1=O` (stereo not shown) [VCY22, 3-(((4-fluorobenzyl)amino)((5-nitrofuran-2-yl)methoxy)phosphoryl)-2-oxopiperidin-1-yl acetate], the IC50 came to 933 nM in data set [1] (setting [7]) and 540 nM in data set [1] (setting [9]).

For the compound `CC(C)(C)C(=O)OCOP(=O)(NCC1CCCCC1)C1CCCN(O)C1=O` (stereo not shown) [CDP18, ((((Cyclohexylmethyl)amino)(1-hydroxy-2-oxopiperidin-3-yl)phosphoryl)oxy)methyl pivalate], the “greater potency compared to benzylamine pro-drug (FLM37)” value in data set [1] (D423 cells) is reported as ~ 3 fold. Besides, the IC50 in data set [1] (setting [8]) and in data set [1] (setting [7]) was 77 nM throughout.

Regarding `CC(C)(C)C(=O)OCOP(=O)(NCC1CC1)C1CCCN(O)C1=O` (stereo not shown) [VCY32, ((((Cyclopropylmethyl)amino)(1-hydroxy-2-oxopiperidin-3-yl)phosphoryl)oxy)methyl pivalate], the IC50 in data set [1] (setting [7]) came out at 9 nM. Besides, the “selectivity for ENO1-deleted cells” value in data set [1] is “selective for ENO1-deleted cells”.

For the compound `CC(=O)ON1CCCC(P(=O)(NCc2ccccc2)OCCSC(=O)C(C)(C)C)C1=O` (stereo not shown) [VCY13, 3-((benzylamino)(2-(pivaloylthio)ethoxy)phosphoryl)-2-oxopiperidin-1-yl acetate], the IC50 in data set [1] (setting [8]) and in data set [1] (setting [7]) was 38 nM each time. Moreover, in data set [1], the “selectivity for ENO1-deleted cells” value is “selective toxicity against ENO1-deleted; also recorded: dose-dependent selectivity for ENO1-deleted cells”.

Take `CC(C)(C)C(=O)OCOP(=O)(O)C1CCCN(O)C1=O` (stereo not shown) [HemiPOMHEX]: the “half-life in monkey compared to mouse” value in data set [3] was “longer in monkey”. The “level in mouse organs” value in data set [6] is “below the quantification limit (BQL)”.

With `CC(C)(C)C(=O)OCOP(=O)(NCc1c(F)cccc1F)C1CCCN(O)C1=O` (stereo not shown) [CDP19, ((((2,6-difluorobenzyl)amino)(1-hydroxy-2-oxopiperidin-3-yl)phosphoryl)oxy)methyl pivalate], the IC50 in data set [1] (setting [7]) was 112 nM.

In the case of `O=C1C(P(=O)(NCc2ccccc2)OCOC(=O)N2CCC(N3CCCCC3)CC2)CCCN1O` (stereo not shown) [CDP9], the concentration for half-maximal inhibition (IC50) in data set [1] (setting [7]) amounted to 36000 nM.

Take `CC(C)(C)C(=O)OCOP(=O)(NCc1ccc(F)cc1)C1CCCN(O)C1=O` (stereo not shown) [VCY19, ((((4-fluorobenzyl)amino)(1-hydroxy-2-oxopiperidin-3-yl)phosphoryl)oxy)methyl pivalate]: in data set [1] (setting [7]), the 50% inhibitory concentration (IC50) stood at 129 nM.

Take `CC(C)(C)C(=O)OCOP(=O)(NCc1ccc(F)cc1F)C1CCCN(O)C1=O` (stereo not shown) [CDP14, ((((2,4-difluorobenzyl)amino)(1-hydroxy-2-oxopiperidin-3-yl)phosphoryl)oxy)methyl pivalate]: the IC50 in data set [1] (setting [7]) was 65 nM.

`CC(C)(C)C(=O)OCOP(=O)(NCc1ccccn1)C1CCCN(O)C1=O` (stereo not shown) [KY9, (((1-hydroxy-2-oxopiperidin-3-yl)((pyridin-2-ylmethyl)amino)phosphoryl)oxy)methyl pivalate]: the IC50 in data set [1] (setting [7]) was 96 nM.
